Results reported in patent publication US20250066794A1, “Application of PRDX5 and GPX4 Genes in Preparation of Drugs for Castration-resistant Prostate Cancer” (Jiangnan University, priority 2023, published 2025).

How the values were obtained:
[1] = tested on: C-MYC (Hi-Myc)-overexpressing and spontaneous prostate cancer mouse model; experiment: C-MYC (Hi-Myc)-overexpressing spontaneous prostate cancer mouse model, ENZ gavage before resistance; assay type: in vivo
Description: (§1) A C-MYC (Hi-Myc)-overexpressing and spontaneous prostate cancer mouse model was constructed. mPIN/Cancer transition was developed in mice at the age of 4 months, at which time the mice were randomly grouped into NC control group (gavaged with solvent) and ENZ administration group. The ENZ administration group was given 10 mg/Kg ENZ by gavage every three days for a total of 30 days, and then some of the mice were sacrificed by cervical dislocation and their prostates were taken for photographing and weighing. […] Afterwards, the rest of the mice continued to be administrated according to the above method for 60 days. A recurrence was found in the ENZ group, and the CRPC mice were successfully obtained. Afterwards, the mice (i.e., mice at the age of 7 months) were randomly grouped into NC control group (continuously gavaged with solvent), ENZ single drug group, nucleic acid drug siPRDX5-1 group, ENZ and siPRDX5-1 co-administration group, nucleic acid drug siPRDX5-16 group, ENZ and siPRDX5-16 co-administration group, nucleic acid drug siGPX4-1 group, ENZ and siGPX4-1 co-administration group, nucleic acid drug siGPX4-16 group, ENZ and siGPX4-16 co-administration group, nucleic acid drugs siPRDX5-16+siGPX4-16 group, and ENZ and siPRDX5-16+siGPX4-16 co-administration group. The corresponding administrations were performed. […]

LNCaP-DTP cells = experiment: CCK8 cell survival, LNCaP-DTP cells; assay type: cell-based, human
Description: (§2) Further, drug-resistant LNCaP-DTP and MyC-CaP-DTP cells as well as 22Rv1 cells which are themselves ENZ-resistant were transfected with the modified #3-siPRDX5-1-16 or #3-siGPX4-1-16 or #3-siPRDX5-1-16+#3-siGPX4-1-16 synthesized in Example 3 through a CCK8 method, illustrating the in vitro antitumor effects of nucleic acid drugs in drug-resistant cells.
(§3) The drug-resistant LNCaP-DTP and MyC-CaP-DTP cells as well as 22Rv1 cells which are themselves ENZ-resistant were seeded in a 96-well plate containing fresh 1640 medium and attached. Subsequently, 1 to 16 siPRDX5, siGPX4, siPRDX5+siGPX4, and negative control si-neg were added, and the transfection mixture was sucked out after successful interference. The medium was replaced with a normal complete medium (1640 medium containing 10% fetal bovine serum and 1% double antibody) and continued to be cultured in the incubator for 24 h. Finally, a CCK8 assay was performed for determination and the cell survival was calculated by OD450 value.

MyC-CaP-DTP cells = experiment: CCK8 cell survival, MyC-CaP-DTP cells; assay type: cell-based, mouse
Description: as §2, §3

PRDX5 enzyme activity = PRDX5 enzyme activity in prostate tissue of CRPC mice (thioredoxin system); assay type: in vivo, mouse; conditions: administration for 30 days, ENZ 10 mg/Kg gavage, siRNA 100 nM tail vein injection
Description: A C-MYC (Hi-Myc)-overexpressing and spontaneous prostate cancer mouse model was constructed. mPIN/Cancer transition was developed in mice at the age of 4 months, at which time the mice were randomly grouped into NC control group (gavaged with solvent) and ENZ administration group. The ENZ administration group was given 10 mg/Kg ENZ by gavage every three days for a total of 30 days, and then some of the mice were sacrificed by cervical dislocation and their prostates were taken for photographing and weighing. […] Afterwards, the rest of the mice continued to be administrated according to the above method for 60 days. A recurrence was found in the ENZ group, and the CRPC mice were successfully obtained. […]
Assay for PRDX5 enzyme activity: the PRDX5 enzyme activity was determined using the thioredoxin system. Specifically, the rate of H2O2 degradation was measured by detecting the reduction of A340 caused by NADPH oxidation. […]

CRPC mice = experiment: Drug-resistant CRPC formed by continuous ENZ in C-MYC-overexpressing prostate cancer mice: prostate weight, HE staining; assay type: in vivo, mouse; conditions: CRPC mice after drug resistance and recurrence; every three days for 30 days; ENZ 10 mg/Kg gavage, siRNA 100 nM tail vein injection
Description: as §1

GPX4 gene = experiment: qRT-PCR relative expression of GPX4 gene after siGPX4 transfection, LNCaP and LNCaP-DTP cells; assay type: cell-based, human; conditions: for mRNA expression level of GPX4: LNCaP and drug-resistant LNCaP-DTP cells together; for Relative expression level of GPX4 gene: qRT-PCR; for interference activity on GPX4 gene expression (in words): drug-resistant or non-drug-resistant LNCaP cells and MyC-CaP cells
Description: (§4) To screen for suitable siRNAs, the interference activity of the siRNAs designed in Example 1 was determined. • S1. LNCaP and MyC-CaP cells were seeded at 1×10^6 in a 10 cm cell culture dish. On the second day, the cells were attached and then treated with 50 μM enzalutamide (ENZ) for 9 days, during which the medium was replaced with a fresh drug-containing medium (1640 medium containing 50 µM ENZ) for culture every three days. The cells were collected. After the treatment for 9 days, the cells were drug-resistant (DTP cells) and were labeled as LNCaP-DTP cells and MyC-CaP-DTP cells, respectively. • S2. LNCaP, MyC-CaP, and LNCaP-DTP and MyC-CaP-DTP cells as collected in S1, were seeded in a 6 cm dish and a 10 cm dish that contain fresh complete medium (1640 medium containing 10% fetal bovine serum and 1% […]), attached, and then transfected with siPRDX5 and siGPX4 designed in Example 1, and then mRNA and protein were extracted. • S3. RNA level and protein level were determined by qRT-PCR and Western Blot assays, and siRNAs with interference activity were screened and obtained.
(§5) The results are shown in FIG. 2 and FIG. 3 as well as Tables 1 and 2. Using the same method as in Example 2, LNCaP and MyC-CaP cells as well as their derived LNCaP-DTP and MyC-CaP-DTP cells were treated with the above modified siRNAs. […] It is also found to be more efficient in interfering with human cells compared to mice.

PRDX5 gene = experiment: qRT-PCR relative expression of PRDX5 gene after siPRDX5 transfection, LNCaP and LNCaP-DTP cells; assay type: cell-based, human; conditions: for mRNA expression level of PRDX5: LNCaP and drug-resistant LNCaP-DTP cells together; for Relative expression level of PRDX5 gene: qRT-PCR
Description: as §4, §5

GPX4 = experiment: Western Blot / qRT-PCR expression of GPX4 after unmodified siGPX4; assay type: cell-based; conditions: unmodified siRNA; LNCaP and MyC-CaP cells (FIG. 1, FIG. 4)
Description: as §4

PRDX5 = experiment: Western Blot / qRT-PCR expression of PRDX5 after unmodified siPRDX5; assay type: cell-based; conditions: unmodified siRNA; LNCaP and MyC-CaP cells (FIG. 1, FIG. 4)
Description: as §4

Compound | mRNA expression level of GPX4 (GPX4 gene) | Relative expression level of GPX4 gene (GPX4 gene; LNCaP cells) | Relative expression level of GPX4 gene (GPX4 gene; LNCaP-DTP cells) | mRNA expression level of PRDX5 (PRDX5 gene) | Relative expression level of PRDX5 gene (PRDX5 gene; LNCaP cells) | Relative expression level of PRDX5 gene (PRDX5 gene; LNCaP-DTP cells) | other results
CNC(=O)c1ccc(N2C(=S)N(c3ccc(C#N)c(C(F)(F)F)c3)C(=O)C2(C)C)cc1F [ENZ, Enzalutamide] | – | – | – | – | – | – | recurrence on continued administration ([1]; administration continued for 60 further days): recurrence; prostate weight compared to that of the NC control group ([1]; mice aged 4 months, 10 mg/Kg ENZ by gavage every three days for 30 days): reduced by half; growth inhibition (in words) (LNCaP-DTP cells): no longer has a significant inhibitory effect; growth inhibition (in words) (MyC-CaP-DTP cells): no longer has a significant inhibitory effect; PRDX5 enzyme activity relative to NC group (PRDX5 enzyme activity): 4.56; Mean mouse prostate weight (CRPC mice): 66.67 mg
#1-siGPX4: unmodified double-stranded siRNA against GPX4, SEQ ID NO. 11 and SEQ ID NO. 12 (chain 1 GUGAGGCAAGACCGAAGUAAACUAC; chain 2 GUAGUUUACUUCGGUCUUGCCUCACUG; unmodified RNA) | around 0.73 | 0.700 | 0.735 | – | – | – | –
#1-siPRDX5: unmodified double-stranded siRNA against PRDX5, SEQ ID NO. 7 and SEQ ID NO. 8 (chain 1 AGACAGACUUAUUACUAGAUGAUUC; chain 2 GAAUCAUCUAGUAAUAAGUCUGUCUCC; chain 1: all phosphodiester, sugars by position and methylation of C not given here; chain 2: unmodified RNA) | – | – | – | around 0.60 | 0.605 | 0.621 | –
#2-siGPX4: unmodified double-stranded siRNA against GPX4, SEQ ID NO. 13 and SEQ ID NO. 14 (chain 1 CUACAACGUCAAAUUCGAUAUGUUC; chain 2 GAACAUAUCGAAUUUGACGUUGUAGCC; chain 1: all phosphodiester, sugars by position not given here; chain 2: RNA, phosphodiester; further chemistry not fully specified) | around 0.73 | 0.730 | 0.755 | – | – | – | –
#2-siPRDX5: unmodified double-stranded siRNA against PRDX5, SEQ ID NO. 9 and SEQ ID NO. 10 (chain 1 GGCCAGAUUUCUGCAAUAAACACUU; chain 2 AAGUGUUUAUUGCAGAAAUCUGGCCAA; chain 1: all phosphodiester, sugars by position and methylation of C not given here; chain 2: unmodified RNA) | – | – | – | around 0.60 | 0.580 | 0.629 | –
#3-siGPX4: unmodified double-stranded siRNA against GPX4, SEQ ID NO. 3 and SEQ ID NO. 4 (chain 1 ACAACGUCAAAUUCGAUAUGU; chain 2 ACAUAUCGAAUUUGACGUUGUAC; unmodified RNA) | around 0.21 | 0.180 | 0.245 | – | – | – | interference activity on GPX4 gene expression (in words) (GPX4 gene): superior interference activity than the #4-siGPX4; expression of GPX4, including mRNA level and protein level (GPX4): substantially reducing the expression of GPX4
#3-siPRDX5: unmodified double-stranded siRNA against PRDX5, SEQ ID NO. 1 and SEQ ID NO. 2 (chain 1 CAGACUUAUUACUAGAUGAUU; chain 2 AAUCAUCUAGUAAUAAGUCUGUC; unmodified RNA) | – | – | – | around 0.16 | 0.125 | 0.197 | interference activity on PRDX5 gene expression (in words) (PRDX5 gene; drug-resistant or non-drug-resistant LNCaP cells and MyC-CaP cells): superior; expression of PRDX5, including mRNA level and protein level (PRDX5): substantially reducing the expression of PRDX5
#4-siGPX4: unmodified double-stranded siRNA against GPX4, SEQ ID NO. 5 and SEQ ID NO. 6 (chain 1 GUGAGGCAAGACCGAAGUAAA; chain 2 UUUACUUCGGUCUUGCCUCACUG; unmodified RNA) | around 0.24 | 0.220 | 0.265 | – | – | – | interference activity on GPX4 gene expression (in words) (GPX4 gene): superior; expression of GPX4, including mRNA level and protein level (GPX4): substantially reducing the expression of GPX4
